Results: patent US6362369B1, “Phthalic acid diamide derivatives fluorine-containing aniline compounds as starting material, agricultural and horticultural insecticides, and a method for application of the insecticides” (Nihon Nohyaku Co., Ltd., priority 1997, dated 2002)

What was measured:
[1] = system: diamondback moth (Plutella xylostella); assay: Insecticidal effect on diamondback moth (Test Example 1); format: in vivo; details: for Insecticidal effect (Test Example 1), judged from mortality / Insecticidal effect, Test Example 1: diamondback moth; for Insecticidal effect (Test Example 1), judged from mortality: judged by the criterion of Test Example 1; for Insecticidal effect on diamondback moth (Test Example 1), judged grade: mortality judged according to the criterion shown in Test Example 1
Summary of the method: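 Triplicate groups of 10 insects: eggs laid on Chinese cabbage seedling by adults, seedling immersed then air-dried, kept at 25° C. Day-6 hatch counts gave mortality, rated by criterion.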

[2] = system: rice leafroller (Cnaphalocrocis medinalis); assay: Insecticidal effect on rice leafroller (Test Example 3); format: in vivo; details: 500 ppm, 25° C., humidity 70%; for Insecticidal effect (Test Example 3), judged from mortality / Insecticidal effect on rice leafroller (Test Example 3), judged grade: rice lamina dip; for Insecticidal effect (Test Example 3), judged from mortality: 4 days after inoculation; for Insecticidal effect, Test Example 3: rice lamina immersed; for Insecticidal effect, Test Example 3 / Insecticidal effect on rice leafroller (Test Example 3), judged grade: four days after inoculation; for Insecticidal effect on rice leafroller (Test Example 3), judged grade: third-instar larvae
Summary of the method: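 Insecticidal effect is judged by a predefined criterion from dead/alive counts four days after infesting air-dried lamina with third-instar larvae, kept on moistened filter paper at 25° C, 70% humidity.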

[3] = third-instar larvae of rice leafroller
[4] = judged by the mortality criterion of Test Example 1
[5] = mortality judged by criterion of Test Example 1
[6] = rice leafroller third-instar larvae

| SMILES | Insecticidal effect, Test Example 1 [1, 4] | Insecticidal effect, Test Example 3 [2, 3] | Insecticidal effect on diamondback moth (Test Example 1), judged grade [1] | Insecticidal effect on rice leafroller (Test Example 3), judged grade [2] | also measured |
| --- | --- | --- | --- | --- | --- |
| CC(C)NC(=O)c1c(I)cccc1C(=O)Nc1cccc2c1OC(F)(F)O2 [compound 1742] | – | – | – | – | Insecticidal effect (Test Example 1), judged from mortality [1]: A (100); Insecticidal effect (Test Example 3), judged from mortality [2, 3]: A (100) |
| Cc1cc(C(F)(C(F)(F)F)C(F)(F)F)ccc1NC(=O)c1cccc(I)c1C(=O)NCCc1cccnc1 [compound 1770] | – | – | – | – | Insecticidal effect (Test Example 1), judged from mortality [1]: A (100); Insecticidal effect (Test Example 3), judged from mortality [2, 3]: A (100) |
| CC(C)NC(=O)c1c(I)cccc1C(=O)Nc1ccc2c(c1)OC(F)(F)C2(F)F [compound 1620] | – | – | – | – | Insecticidal effect (Test Example 1), judged from mortality [1]: A (100); Insecticidal effect (Test Example 3), judged from mortality [2, 3]: A (100) |
| CCCNC(=O)c1c(Cl)cccc1C(=O)Nc1ccc(OC(F)F)cc1C [compound 15] | A (100) | A (100) | – | – | – |
| Cc1c(F)cccc1NC(=O)c1cccc(F)c1C(=O)NC(C)C [compound 494] | – | – | A (100) | A (100) | – |
| Cc1cc(Oc2ccc(C(F)(F)F)cn2)ccc1NC(=O)c1cccc([N+](=O)[O-])c1C(=O)NC(C)C [compound 728] | – | – | A (100) | A (100) | – |
| CC(C)NC(=O)c1ccccc1C(=O)Nc1cccc(C(F)(F)F)c1 [compound 26] | A (100) | D (79-50) | – | – | – |
| Cc1cc(C(F)(F)C(F)(F)F)ccc1NC(=O)c1cccc(Cl)c1C(=O)NCc1cccnc1 [compound 1419] | – | – | – | – | Insecticidal effect, Test Example 1 [1, 5]: A (100); Insecticidal effect, Test Example 3 [2, 6]: A (100) |
| CC(C)NC(=O)c1c(F)cccc1C(=O)Nc1ccc2c(c1)OCO2 [compound 528] | – | – | A (100) | A (100) | – |
| Cc1cc(Cl)ccc1NC(=O)c1cccc(SC(C)C)c1C(=O)NC(C)C [compound 788] | – | – | C (89-80) | C (89-80) | – |
| CC(C)NC(=O)c1c(F)cccc1C(=O)Nc1ccc(C(F)(F)C(F)(F)F)cc1F [compound 1514] | – | – | – | – | Insecticidal effect (Test Example 1), judged from mortality [1]: A (100); Insecticidal effect (Test Example 3), judged from mortality [2, 3]: A (100) |
| CC(C)NC(=O)c1c(I)cccc1C(=O)Nc1c(Cl)ccc2c1OC(F)(F)O2 [compound 1743] | – | – | – | – | Insecticidal effect (Test Example 1), judged from mortality [1]: A (100); Insecticidal effect (Test Example 3), judged from mortality [2, 3]: A (100) |
| Cc1cc(N(C)C)ccc1NC(=O)c1cccc([N+](=O)[O-])c1C(=O)NC(C)C [compound 723] | – | – | D (79-50) | D (79-50) | – |
| Cc1cc(Oc2ccc(C(F)(F)F)cc2Cl)ccc1NC(=O)c1ccccc1C(=O)NC(C)C [compound 75] | A (100) | A (100) | – | – | – |
| CCCNC(=O)c1c(C(=O)Nc2cc(Cl)ccc2C)cccc1[N+](=O)[O-] [compound 18] | D (79-50) | A (100) | – | – | – |
| Cc1cc(Cl)ccc1NC(=O)c1cccc(C(=O)NC(C)C)c1C(=O)NC(C)C [compound 803] | – | – | A (100) | A (100) | – |
| CC(C)NC(=O)c1cccc(Cl)c1C(=O)Nc1ccc(Cl)cc1Cl [compound 209] | A (100) | B (99-90) | – | – | – |
| Cc1cc(OC(C)C)ccc1NC(=O)c1cccc(I)c1C(=O)NC(C)C [compound 377] | A (100) | A (100) | – | – | – |
| COCCNC(=O)c1c(C(=O)Nc2ccc(OC(F)F)cc2C)cccc1[N+](=O)[O-] [compound 872] | – | – | A (100) | C (89-80) | – |
| CC(C)NC(=O)c1ccccc1C(=O)Nc1ccc(F)cc1 [compound 23] | A (100) | D (79-50) | – | – | – |
| CC(C)(C)NC(=O)c1ccccc1C(=O)Nc1ccc2c(c1)OC(F)C(F)(F)O2 (stereo not drawn) [compound 1149] | – | – | – | – | Insecticidal effect, Test Example 1 [1, 5]: A (100); Insecticidal effect, Test Example 3 [2, 6]: A (100) |

| SMILES | Insecticidal effect, Test Example 1 [1, 4] | Insecticidal effect, Test Example 3 [2, 3] | Insecticidal effect on diamondback moth (Test Example 1), judged grade [1] | Insecticidal effect on rice leafroller (Test Example 3), judged grade [2] | also measured |
| --- | --- | --- | --- | --- | --- |
| CCN(CC)C(=O)c1c(C(=O)Nc2ccc(C(F)(F)C(F)(F)F)cc2F)cccc1[N+](=O)[O-] [compound 1134] | – | – | – | – | Insecticidal effect, Test Example 1 [1, 5]: A (100); Insecticidal effect, Test Example 3 [2, 6]: A (100) |
| Cc1c(NC(=O)c2cccc([N+](=O)[O-])c2C(=O)NC(C)C)ccc(OC(F)F)c1Cl [compound 717] | – | – | A (100) | A (100) | – |
| Cc1cc(OC(F)F)ccc1NC(=O)c1cc(F)ccc1C(=O)NC(C)C [compound 534] | – | – | A (100) | A (100) | – |
| Cc1cc(C(F)(F)C(F)(F)F)ccc1N(C)C(=O)c1cccc(Cl)c1C(=O)N(C)Cc1ccccc1 [compound 1553] | – | – | – | – | Insecticidal effect (Test Example 1), judged from mortality [1]: A (100); Insecticidal effect (Test Example 3), judged from mortality [2, 3]: A (100) |
| CC(C)NC(=O)c1cccc(Br)c1C(=O)Nc1ccc(C(F)(F)F)cc1Cl [compound 315] | A (100) | A (100) | – | – | – |
| CC(C)NC(=O)c1c(C(=O)Nc2ccc(Cl)cc2C(F)(F)F)cccc1[N+](=O)[O-] [compound 679] | – | – | A (100) | A (100) | – |
| Cc1cc(OCC(F)(F)F)ccc1NC(=O)c1c(I)cccc1C(=O)NC(C)C [compound 443] | A (100) | D (79-50) | – | – | – |
| CC(C)NC(=O)c1c(I)cccc1C(=O)Nc1ccc(C(F)(C(F)(F)F)C(F)(F)F)c2c1CCCC2 [compound 1726] | – | – | – | – | Insecticidal effect (Test Example 1), judged from mortality [1]: A (100); Insecticidal effect (Test Example 3), judged from mortality [2, 3]: A (100) |
| CC(C)NC(=O)c1ccccc1C(=O)Nc1ccc2c(c1)OC(F)C(F)(F)O2 (stereo not drawn) [compound 1145] | – | – | – | – | Insecticidal effect, Test Example 1 [1, 5]: A (100); Insecticidal effect, Test Example 3 [2, 6]: A (100) |
| Cc1cc(OC(F)(F)Br)ccc1NC(=O)c1c(Br)cccc1C(=O)NC(C)C [compound 327] | A (100) | A (100) | – | – | – |
| CCCNC(=O)c1cccc(I)c1C(=O)Nc1ccc(C(F)(F)C(F)(F)F)cc1C [compound 1304] | – | – | – | – | Insecticidal effect, Test Example 1 [1, 5]: A (100); Insecticidal effect, Test Example 3 [2, 6]: A (100) |
| COc1cccc(C(=O)NC(C)C)c1C(=O)Nc1ccc(OC(F)(F)F)cc1 [compound 769] | – | – | A (100) | D (79-50) | – |
| CC(C)NC(=O)c1cccc(Cl)c1C(=O)Nc1ccc(C(F)(F)F)cc1Cl [compound 220] | A (100) | A (100) | – | – | – |
| C#CCNC(=O)c1cccc(I)c1C(=O)Nc1ccc(C(F)(F)C(F)(F)F)cc1C [compound 990] | – | – | – | – | Insecticidal effect, Test Example 1 [1, 5]: A (100); Insecticidal effect, Test Example 3 [2, 6]: A (100) |
| Cc1cccc(NC(=O)c2c(Br)cccc2C(=O)NC(C)C)c1C [compound 303] | A (100) | D (79-50) | – | – | – |
| CC(C)NC(=O)c1cccc(I)c1C(=O)Nc1ccc(Cl)cc1 [compound 411] | A (100) | A (100) | – | – | – |
| Cc1cc(C(F)(F)C(F)(F)C(F)(F)C(F)(F)C(F)(F)C(F)(F)F)ccc1NC(=O)c1c(Cl)cccc1C(=O)NC(C)C [compound 226] | A (100) | A (100) | – | – | – |
| CC(C)NC(=O)c1ccc(Cl)cc1C(=O)Nc1ccc(Cl)cc1Cl [compound 187] | A (100) | D (79-50) | – | – | – |
| CC(C)NC(=O)c1c(C(=O)Nc2ccc(OC(F)(F)F)cc2Cl)cccc1[N+](=O)[O-] [compound 704] | – | – | A (100) | A (100) | – |
| Cc1cc(SC(C)C)ccc1NC(=O)c1cccc(F)c1C(=O)NC(C)C [compound 518] | – | – | A (100) | B (99-90) | – |
| Cc1ccc(Cl)cc1NC(=O)c1c(F)cccc1C(=O)NC(C)C [compound 546] | – | – | A (100) | A (100) | – |
